Data reported in patent US12150975B2, “Therapeutic combinations to treat red blood cell disorders” (HARTIS-PHARMA SA, priority 2016, dated 2024).

Experiments:
Assay type in all cases: cell-based, human
[1] = tested on: RBC from healthy subjects; assay: Reactive oxygen species (ROS) in RBC measured as Median Fluorescence Intensity by flow cytometry; conditions: 20 min incubation
Protocol: Blood was collected from four healthy control subjects using citrate as anticoagulant. After low speed centrifugation, the RBC pellet was washed with isotonic phosphate buffered saline (PBS) and re-suspended in PBS (hematocrite 20%). The RBC were prepared as described in Example 7 and the effect of HDL with or without lutein on the oxidative stress status of RBC was determined using RBC from healthy subjects incubated for 20 min in presence of 100 μM HDL isolated from human plasma (Sigma ref L-1567) in presence or absence of 1 μM or 10 μM lutein (Bertin pharma ref. 1001081). Reactive oxygen species (ROS) were measured as Median Fluorescence Intensity (MFI) by flow cytometry similarly to Amer et al., 2003, Eur J Haematol, 70(2):84-90.

RBC from healthy control = assay: RBC sensitivity to cholesterol depletion: hemolysis and membrane deformability by ektacytometry, healthy RBC; conditions: 10 mM methyl-beta-cyclodextrine, 20 min at 37° C.
Protocol: (§1) Blood was collected from four healthy control subjects using citrate as anticoagulant. After low speed centrifugation, the RBC pellet was washed with isotonic phosphate buffered saline (PBS) and re-suspended in PBS (hematocrite 20%).
(§2) To confirm the difference in membrane cholesterol in RBC from SCD compared to healthy subjects, RBC's sensitivity to the cholesterol depleting agent methyl-beta-cyclodextrine was assessed. RBCs were incubated for 20 min at 37° C. in the presence of 2.5 mM or 10 mM methyl-beta-cyclodextrine (Sigma ref. C4555-5G) as described by Motayama et al., 2009, Biol. Pharm. Bull., 32(4) 700-705. RBC membrane deformability was assessed by ektacytometry (Mechatronics) as described by Renoux et al., 2016, Clin Hemorheol Microcirc., 62(2):173-9 at shear rate of 3 Pa and 30 Pa.

RBC from SCD subjects = assay: RBC sensitivity to cholesterol depletion: hemolysis and membrane deformability by ektacytometry, SCD RBC; conditions: 10 mM methyl-beta-cyclodextrine, 20 min at 37° C., RBC from 4 SCD subjects
Protocol: as §1, §2

Molecule	decrease in ROS ([1]; 1 μM lutein) [%]	% change in ROS MFI vs control ([1]; Lutein 1 μM) [%]	mean MFI (ROS) ([1]; Lutein 1 μM)	% change in ROS MFI vs control ([1]; Lutein 10 μM) [%]	mean MFI (ROS) ([1]; Lutein 10 μM)	hemolysis (RBC from healthy control)	RBC deformability (RBC from healthy control; ektacytometry at 3 Pa and 30 Pa)	cholesterol depleting effect and resulting hemolysis (RBC from SCD subjects)
CC1=C[C@H](O)CC(C)(C)[C@H]1/C=C/C(C)=C/C=C/C(C)=C/C=C/C=C(C)/C=C/C=C(C)/C=C/C1=C(C)C[C@@H](O)CC1(C)C [Lutein, lutein]	9.2	−9.2	38.3	−36.4	26.8	–	–	–
methyl-beta-cyclodextrine	–	–	–	–	–	marked hemolysis	significant decrease	resistant
